Measurements as given in article PMC11344421, “Polyphyllin I exerts anti-hepatocellular carcinoma activity by targeting ZBTB16 to activate the PPARγ/RXRα signaling pathway” (Chinese Medicine, 2024).

Molecular target: T1, recombinant human (rh) ZBTB16 protein (Homo sapiens, UniProt Q05516)
T1 construct: recombinant human protein immobilised on sensor
T1 sequence (Q05516 1-673): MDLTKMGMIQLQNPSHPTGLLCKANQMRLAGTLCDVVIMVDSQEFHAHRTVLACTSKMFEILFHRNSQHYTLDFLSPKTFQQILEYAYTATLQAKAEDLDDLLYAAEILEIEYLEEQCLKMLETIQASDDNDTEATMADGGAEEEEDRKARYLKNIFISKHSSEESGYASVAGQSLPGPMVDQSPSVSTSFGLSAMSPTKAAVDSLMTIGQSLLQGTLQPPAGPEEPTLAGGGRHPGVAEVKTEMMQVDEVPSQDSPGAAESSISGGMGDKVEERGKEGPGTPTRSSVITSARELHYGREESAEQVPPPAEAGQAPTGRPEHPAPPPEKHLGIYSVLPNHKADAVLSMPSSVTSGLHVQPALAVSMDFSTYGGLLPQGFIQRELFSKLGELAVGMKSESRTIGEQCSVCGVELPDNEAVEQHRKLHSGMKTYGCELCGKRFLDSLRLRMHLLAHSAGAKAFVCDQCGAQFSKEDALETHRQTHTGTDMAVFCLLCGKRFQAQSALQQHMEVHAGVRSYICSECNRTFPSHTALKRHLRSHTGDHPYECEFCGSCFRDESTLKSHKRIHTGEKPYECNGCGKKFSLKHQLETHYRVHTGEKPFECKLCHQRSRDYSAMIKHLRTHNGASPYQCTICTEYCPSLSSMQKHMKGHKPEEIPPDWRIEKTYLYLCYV
Assay: surface plasmon resonance (OpenSPR, ZBTB16 immobilised by EDC/NHS)
Assay type: binding

Which Kd does the source give for `C[C@@H]1CC[C@@]2(OC1)O[C@H]1C[C@H]3[C@@H]4CC=C5C[C@@H](O[C@@H]6O[C@H](CO)[C@@H](O[C@@H]7O[C@@H](CO)[C@H](O)[C@H]7O)[C@H](O)[C@H]6O[C@@H]6O[C@@H](C)[C@H](O)[C@@H](O)[C@H]6O)CC[C@]5(C)[C@H]4CC[C@]3(C)[C@H]1[C@@H]2C` [Polyphyllin I] here?
The Kd was 5.5 µM.
